Laboratory results as given in PMC8253137, “Microbiota-derived butyrate is an endogenous HIF prolyl hydroxylase inhibitor” (Gut Microbes, 2021).

Test system: T84 cells
Experiment: 2-OG levels in T84 cells
Type: cell-based
Conditions: 3 h
Description: T84 cells were cultured in 95% air with 5% CO2 at 37°C in standard media made of DMEM:F-12 supplemented with 10% calf serum, 1% penicillin/streptomycin, and 1% GlutaMAX™ (ThermoFisher Scientific) on 9.6 cm^2 6-well plates (ThermoFisher Scientific). Real-time oxygen sensing was done using the SensorDish Reader from Applikon Biotechnology as described previously with T84 cells plated on 0.33 cm^2 transwell inserts (Corning, 0.4 μm).[12] All MCPA treatments included a 2 h pretreatment with MCPA before treatment with butyrate.
Metabolites Extractions and HPLC-DAD: Cell and colon tissue metabolites were extracted and analyzed as previously described with minor variations.[61],[62] The metabolites were detected by absorption at wavelengths of 210, 254, and 280 nm, with their absorbance spectra and retention times verified by co-injection with authentic standards. Metabolites for HPLC-ESI MS analyses were resuspended in deionized water (pH 7.2).
HPLC-ESI MS: Analyses were performed on an Agilent Technologies 1260 Infinity II LC/MSD iQ with electrospray ionization (ESI) mass detection. Negative ion mass-to-charge ratios (m/z) were scanned from 50 to 500. The metabolite extracts were chromatographed using a Sepax Carbomix column (Pb-Np5:8%, 5 μm, non-porous, 4.6 × 300 mm) (mobile phase A: water; mobile phase B: acetonitrile; column temperature, 75°C). Chromatographic separation was performed using a combination of isocratic and gradient methods, including column washing and equilibration periods at the end (0 min: 100% A, 0.12 mL/min; 60 min: 100% A, 0.12 mL/min; 70 min: 70% A, 0.5 mL/min; 145 min: 70% A, 0.5 mL/min; 150 min: 100% A, 0.5 mL/min; 164 min, 100% A, 0.5 mL/min; 165 min, 100% A, 0.12 mL/min; 170 min, 100% A, 0.12 mL/min).

## CCCC(=O)O [Butyrate]
10 mM butyrate or 30 μM IOX2
  2-OG levels compared to control: significantly increased
10 mM butyrate with 1 mM MCPA
  2-OG levels in the presence of MCPA: significantly increased
